Laboratory results as given in US20190367520A1, “NEW COMPOUND HAVING FGFR INHIBITORY ACTIVITY AND PREPARATION AND APPLICATION THEREOF” (SHANGHAI INSTITUTE OF MATERIA MEDICA, CHINESE ACADEMY OF …, priority 2016, published 2019).

Legend:
[1] = molecular target: FGFR4 kinase domain recombinant protein (Homo sapiens, UniProt P22455); assay: FGFR4 enzyme activity at molecular level (ELISA, Poly(Glu,Tyr) 4:1 substrate)
Experimental: (§1) The plate was placed at 37° C. for 12-16 hours. The liquid in the well was discarded, the plate was washed, and the panel was washed three times with 200 μL/well of T-PBS (PBS containing 0.1% Tween-20) for 5 minutes each time.
(§2) 50 μL of ATP solution diluted with reaction buffer (50 mM HEPES pH 7.4, 50 mM MgCl2, 0.5 mM MnCl2, 0.2 mM Na3VO4, 1 mM DTT) was added to each well to a final concentration of 5 μM. The compound was diluted to a suitable concentration in DMSO, 1 μL/well or containing the corresponding concentration of DMSO (negative control well), and the FGFR1, FGFR4 kinase domain recombinant protein diluted in 49 μL of reaction buffer was added to initiate the reaction. Two control wells without ATP were required for each experiment. The reaction was carried out for 1 hour at 37° C. on a shaker (100 rpm). The plate was washed three times with T-PBS. Primary antibody, PY99 dilution was added at 100 μL/well and shaken at 37° C. for 0.5 hour. The plate was washed three times with T-PBS. Secondary antibody, horseradish peroxidase-labeled goat anti-mouse IgG dilution was added at 100 μL/well, and shaken at 37° C. for 0.5 hour. […] (Ultrasound was required for the dissolution of OPD, and the chromogenic solution needed to be prepared when used). 2 M H2SO4 was added at 50 μL/well to quench the reaction and a tunable wavelength microplate reader SPECTRA MAX 190 was used at a wavelength of 490 nm.
(§3) The inhibition rate of the sample was obtained by the following formula:
(§4) The IC50 value was obtained by four-parameter regression using the software attached to the microplate reader.

[2] = molecular target: FGFR1 kinase domain recombinant protein (Homo sapiens, UniProt P11362); assay: FGFR1 enzyme activity at molecular level (ELISA, Poly(Glu,Tyr) 4:1 substrate)
FGFR1 kinase domain recombinant protein, sequence (P11362 478-767 limits assumed): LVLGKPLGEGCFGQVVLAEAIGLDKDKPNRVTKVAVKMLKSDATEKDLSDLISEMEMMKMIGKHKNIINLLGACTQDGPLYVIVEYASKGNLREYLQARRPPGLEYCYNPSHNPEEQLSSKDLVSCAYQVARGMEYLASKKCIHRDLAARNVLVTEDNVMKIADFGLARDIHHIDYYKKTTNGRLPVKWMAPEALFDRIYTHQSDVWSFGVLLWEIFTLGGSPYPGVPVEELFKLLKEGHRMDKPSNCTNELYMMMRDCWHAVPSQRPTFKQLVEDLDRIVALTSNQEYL
Experimental: as §1, §2, §3, §4

FGFR4 kinase domain recombinant protein, sequence (P22455 467-755 limits assumed): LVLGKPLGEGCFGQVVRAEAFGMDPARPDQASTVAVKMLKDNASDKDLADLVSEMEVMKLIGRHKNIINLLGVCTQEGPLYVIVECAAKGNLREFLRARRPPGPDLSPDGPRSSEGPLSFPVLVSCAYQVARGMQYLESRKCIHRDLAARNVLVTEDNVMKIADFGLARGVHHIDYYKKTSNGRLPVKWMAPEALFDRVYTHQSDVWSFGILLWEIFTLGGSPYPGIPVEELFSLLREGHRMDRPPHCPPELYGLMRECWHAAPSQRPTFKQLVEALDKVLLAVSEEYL

| IC50 [1] | IC50 [2] | Compound | FGFR inhibitory activity (in words) ([2]; FGFR1 and FGFR4 enzymes, conclusion from Table 2) |
| --- | --- | --- | --- |
| 10 to 100 nM | > 100 nM | C=CC(=O)N1CC[C@H](n2cc(-c3cnc4ccccc4c3)c3c(N)ncnc32)C1 [Control compound, (S)-1-(3-(4-amino-5-(quinolin-3-yl)-7H-pyrrole[2,3-d]pyrimidine-7-yl)pyrrolidine-1-yl)prop-2-en-1-one, reference compound] | substantially no FGFR inhibitory activity |
| 10 to 100 nM | < 10 nM | CCN(C)C/C=C/C(=O)N1CCC(n2cc(-c3cc4cc(C)cc(OC)c4s3)c3c(N)ncnc32)C1 (stereo not drawn) [NO. 5, (E) 1-(3-(4-amino-5-(7-methoxy-5-methylbenzothiophene-2-yl)-7H-pyrrole[2,3-d]pyrimidine-7-yl)pyrrolidine-1-yl)-4-(ethyl(methy)amino)but-2-en-1-one] |  |
| 10 to 100 nM | < 10 nM | COc1cc(C)cc2cc(-c3cn(C4CCN(C(=O)/C=C/CN(C)C(C)C)C4)c4ncnc(N)c34)sc12 (stereo not drawn) [NO. 6, (E)1-(3-(4-amino-5-(7-methoxy-5-methylbenzothiophene-2-yl)-7H-pyrrole[2,3-d]pyrimidine-7-yl)pyrrolidine-1-yl)-4-(isopropyl(methyl)amino)but-2-en-1-one] |  |
| 10 to 100 nM | < 10 nM | COc1cc(C)cc2cc(-c3cn(C4CCN(C(=O)/C=C/CN5CCCC5)C4)c4ncnc(N)c34)sc12 (stereo not drawn) [NO. 7, (E)1-(3-(4-amino-5-(7-methoxy-5-methylbenzothiophene-2-yl)-7H-pyrrole[2,3-d]pyrimidine-7-yl)pyrrolidine-1-yl)-4-(pyrrolidine-1-yl)but-2-en-1-one] |  |
| 10 to 100 nM | < 10 nM | COc1cc(C)cc2cc(-c3cn(C4CCN(C(=O)/C=C/CN5CCCCC5)C4)c4ncnc(N)c34)sc12 (stereo not drawn) [NO. 8, (E) 1-(3-(4-amino-5-(7-methoxy-5-methylbenzothiophene-2-yl)-7H-pyrrole[2,3-d]pyrimidine-7-yl)pyrrolidine-1-yl)-4-(piperidine-1-yl)but-2-en-1-one] |  |
| > 100 nM | 10 to 100 nM | COc1cc(C)cc2cc(-c3cn(C4CCNC4)c4ncnc(N)c34)sc12 (stereo not drawn) [NO. 9, 5-(7-methoxy-5-methylbenzothiophene-2-yl)-7-(pyrrolidine-3-yl)-7H-pyrrole[2,3-d]pyrimidine-4-amine] |  |
| > 100 nM | 10 to 100 nM | COc1cc(C)cc2cc(-c3cn(C4CCN(C(=O)OC(C)(C)C)C4)c4ncnc(N)c34)sc12 (stereo not drawn) [NO. 10, tert-butyl 3-(4-amino-5-(7-methoxy-5-methylbenzothiophene-2-yl)-7H-pyrrole[2,3-d]pyrimidine-7-yl) pyrrolidine-1-formate] |  |
| 10 to 100 nM | < 10 nM | C=CC(=O)N1CC[C@@H](n2cc(-c3cc4cc(C)cc(OC)c4s3)c3c(N)ncnc32)C1 [NO. 11, (R)-1-(3-(4-amino-5-(7-methoxy-5-methylbenzothiophene-2-yl)-7H-pyrrole[2,3-d]pyrimidine-7-yl)pyrrolidine-1-yl)prop-2-en-1-one] |  |
| 10 to 100 nM | < 10 nM | COc1cc(C)cc2cc(-c3cn(C4CN(C(=O)/C=C/CN5CCCC5)C4)c4ncnc(N)c34)sc12 [NO. 17] |  |
| 10 to 100 nM | < 10 nM | C/C=C/C(=O)N1CCC(n2cc(-c3cc4cc(C)cc(OC)c4s3)c3c(N)ncnc32)C1 (stereo not drawn) [NO. 18, (E)-1-(3-(4-amino-5-(7-methoxy-5-methylbenzothiophene-2-yl)-7H-pyrrole[2,3-d]pyrimidine-7-yl)pyrrolidine-1-yl)but-2-en-1-one] |  |
| 10 to 100 nM | < 10 nM | COc1cc(C)cc2cc(-c3cn(C4CN(C(=O)/C=C/CN(C)C)C4)c4ncnc(N)c34)sc12 [NO. 19, (E)-1-(3-(4-amino-5-(7-methoxy-5-methylbenzothiophene-2-yl)-7H-pyrrole[2,3-d]pyrimidine-7-yl)azetidin-1-yl)-4-(dimethylamino)but-2-en-1-one] |  |
| 10 to 100 nM | 10 to 100 nM | C=CC(=O)N1CCC(Cn2cc(-c3cc4cc(C)cc(OC)c4s3)c3c(N)ncnc32)C1 (stereo not drawn) [NO. 20, 1-(3-((4-amino-5-(7-methoxy-5-methylbenzothiophene-2-yl)-7H-pyrrole [2,3-d]pyrimidine-7-yl)methyl)pyrrolidine-1-yl)prop-2-en-1-one] |  |
| > 100 nM |  | C=CC(=O)N1CC(n2cc(-c3cc4cc(C)cc(OC)c4o3)c3c(N)ncnc32)C1 [NO. 23, 1-(3-(4-amino-5-(7-methoxy-5-methylbenzofuran-2-yl)-7H-pyrrole[2,3-d]pyrimidine-7-yl)azetidine-1-yl)prop-2-en-1-one] |  |
| < 10 nM | < 10 nM | COc1cc(C)cc2cc(-c3cn(C4CCN(C(=O)C(C#N)=CC5CC5)C4)c4ncnc(N)c34)sc12 (stereo not drawn) [NO. 25, 2-(3-(4-amino-5-(7-methoxy-5-methylbenzothiophene-2-yl)-7H-pyrrole[2,3-d]pyrimidine-7-yl)pyrrolidine-1-carbonyl)-3-cyclopropyl acrylonitrile] |  |
| < 10 nM | < 10 nM | C=C(CN1CCCC1)C(=O)N1CC(n2cc(-c3cc4cc(C)cc(OC)c4s3)c3c(N)ncnc32)C1 [NO. 44, 1-(3-(4-amino-5-(7-methoxy-5-methylbenzothiophene-2-yl)-7H-pyrrole[2,3-d]pyrimidine-7-yl)azetidine-1-yl)-2-(pyrrolidine-1-methylene)prop-2-en-1-one] |  |
| < 10 nM | 10 to 100 nM | C=C(CN1CCOCC1)C(=O)N1CC[C@H](n2cc(-c3cc4cc(C)cc(OC)c4s3)c3c(N)ncnc32)C1 [NO. 45, (S) 1-(3-(4-amino-5-(7-methoxy-5-methylbenzothiophane-2-yl)-7H-pyrrole[2,3-d]pyrimidine-7-yl)pyrrolidine-1-yl)-2-(morpholinemethylene)prop-2-en-1-one] |  |
| < 10 nM | 10 to 100 nM | C=C(CN(CC)CC)C(=O)N1CC[C@H](n2cc(-c3cc4cc(C)cc(OC)c4s3)c3c(N)ncnc32)C1 [NO. 46, (S) 1-(3-(4-amino-5-(7-methoxy-5-methylbenzothiophene-2-yl)-7H-pyrrole[2,3-d]pyrimidine-7-yl)pyrrolidine-1-yl)-2-((diethylamino)methylene)prop-2-en-1-one] |  |
| < 10 nM | 10 to 100 nM | C=C(CN1CCCCC1)C(=O)N1CC[C@H](n2cc(-c3cc4cc(C)cc(OC)c4s3)c3c(N)ncnc32)C1 [NO. 48, (S) 1-(3-(4-amino-5-(7-methoxy-5-methylbenzothiophene-2-yl)-7H-pyrrole[2,3-d]pyrimidine-7-yl)pyrrolidine-1-yl)-2-(piperidine-1-methylene)prop-2-en-1-one] |  |
| < 10 nM | 10 to 100 nM | C=C(CN1CCN(C)CC1)C(=O)N1CC[C@H](n2cc(-c3cc4cc(C)cc(OC)c4s3)c3c(N)ncnc32)C1 [NO. 49, (S) 1-(3-(4-amino-5-(7-methoxy-5-methylbenzothiophene-2-yl)-7H-pyrrole[2,3-d]pyrimidine-7-yl)pyrrolidine-1-yl)-2-((4-methylpiperazin-1-yl)-methylene)prop-2-en-1-one] |  |
| > 100 nM | > 100 nM | C=CC(=O)NCCn1nc(-c2cc3cc(C)cc(OC)c3s2)c2c(N)ncnc21 [NO. 50, N-(2-(4-amino-3-(7-methoxy-5-methylbenzothiophen-2-yl)-1H-pyrazole[3,4-d]pyrimidine-1-yl)ethyl)acrylamide] |  |
| < 10 nM | < 10 nM | C=C(CN(CC)CC)C(=O)N1CC(n2cc(-c3cc4cc(C)cc(OC)c4s3)c3c(N)ncnc32)C1 [NO. 51, 1-(3-(4-amino-5-(7-methoxy-5-methylbenzothiophene-2-yl)-7H-pyrrole[2,3-d]pyrimidine-7-yl)azetidine-1-yl)-2-((diethylamino)methylene)prop-2-en-1-one] |  |
| < 10 nM | < 10 nM | C=C(CN1CCN(C)CC1)C(=O)N1CC(n2cc(-c3cc4cc(C)cc(OC)c4s3)c3c(N)ncnc32)C1 [NO. 52, 1-(3-(4-amino-5-(7-methoxy-5-methylbenzothiophene-2-yl)-7H-pyrrole[2,3-d]pyrimidine-7-yl)azetidine-1-yl)-2-((4-methylpiperazin-1-yl)methylene)prop-2-en-1-one] |  |
|  | < 10 nM | C=CC(=O)N1CC[C@H](n2cc(-c3cc4cc(Cl)cc(OC)c4s3)c3c(N)ncnc32)C1 [NO. 59, (S)-1-(3-(4-amino-5-(5-chloro-7-methoxybenzothiophene-2-yl)-7H-pyrrole[2,3-d]pyrimidine-7-yl)pyrrolidine-1-yl)prop-2-en-1-one] |  |
|  | < 10 nM | C=CC(=O)N1CC[C@H](n2cc(-c3cc4cc(F)cc(OC)c4s3)c3c(N)ncnc32)C1 [NO. 60, (S)-1-(3-(4-amino-5-(5-fluoro-7-methoxybenzothiophene-2-yl)-7H-pyrrole[2,3-d]pyrimidine-7-yl)pyrrolidine-1-yl)prop-2-en-1-one] |  |
|  | < 10 nM | C=CC(=O)N1CC[C@H](n2cc(-c3cc4cc(Br)cc(OC)c4s3)c3c(N)ncnc32)C1 [NO. 62, (S)-1-(3-(4-amino-5-(5-bromo-7-methoxybenzothiophene-2-yl)-7H-pyrrole[2,3-d]pyrimidine-7-yl)pyrrolidine-1-yl)prop-2-en-1-one] |  |
|  | > 100 nM | C=CC(=O)N1CCC(n2cc(-c3cc4cc(C)cc(OC)c4s3)c3c(N)nc(OCCN4CCOCC4)nc32)C1 (stereo not drawn) [NO. 66, 1-(3-(4-amino-5-(7-methoxy-5-methylbenzothiophene-2-yl)-2-(2-morpholineethoxy)-7H-pyrrole [2,3-d]pyrimidine-7-yl)pyrrolidine-1-yl)prop-2-en-1-one] |  |
|  | < 10 nM | C=CC(=O)N1CC(n2cc(-c3cc4cc(C)cc(OC)c4s3)c3c(N)ncnc32)CC1CO (stereo not drawn) [NO. 70, 1-(4-(4-amino-5-(7-methoxy-5-methylbenzothiophene-2-yl)-7H-pyrrole[2,3-d]pyrimidine-7-yl)-2-(hydroxymethyl)pyrrolidine-1-yl)prop-2-en-1-one] |  |
|  | < 10 nM | C=CC(=O)N1CCC(n2c(Cl)c(-c3cc4cc(C)cc(OC)c4s3)c3c(N)ncnc32)C1 (stereo not drawn) [NO. 71] |  |
|  | < 10 nM | C=CC(=O)N1C[C@@H](n2nc(-c3cc4cc(C)cc(OC)c4s3)c3c(N)ncnc32)C[C@H]1C(=O)N(C)CCN(C)C [NO. 75] |  |
